From the supplement of paper PMC10307832

What was measured:
Assay in all cases: relative viability (nuclei count vs DMSO), 5 days (fraction); higher = more cells survive
Linifanib + Tozasertib = compound: Cc1ccc(F)c(NC(=O)Nc2ccc(-c3cccc4[nH]nc(N)c34)cc2)c1 [Linifanib] + Cc1cc(Nc2cc(N3CCN(C)CC3)nc(Sc3ccc(NC(=O)C4CC4)cc3)n2)n[nH]1 [Tozasertib] (partner 0.1 µM)
In short: (§1)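 Dosing by pin tool came one day after lung cancer cell lines were seeded in 1536-well plates, using either one drug or a fixed anchor-drug dose plus five library-drug doses (not always all listed) in √10 steps. After 5 days, nuclei were counted on 4× images. Relative viability is treated-well nuclei count divided by vehicle-well nuclei count, and values are medians of duplicate plates.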

Linifanib + Foretinib = compound: Cc1ccc(F)c(NC(=O)Nc2ccc(-c3cccc4[nH]nc(N)c34)cc2)c1 [Linifanib] + COc1cc2c(Oc3ccc(NC(=O)C4(C(=O)Nc5ccc(F)cc5)CC4)cc3F)ccnc2cc1OCCCN1CCOCC1 [Foretinib] (partner 0.25 µM)
In short: as §1

Linifanib + Crizotinib = compound: Cc1ccc(F)c(NC(=O)Nc2ccc(-c3cccc4[nH]nc(N)c34)cc2)c1 [Linifanib] + C[C@@H](Oc1cc(-c2cnn(C3CCNCC3)c2)cnc1N)c1c(Cl)ccc(F)c1Cl [Crizotinib] (partner 1 µM)
In short: as §1

Linifanib + Trametinib = compound: Cc1ccc(F)c(NC(=O)Nc2ccc(-c3cccc4[nH]nc(N)c34)cc2)c1 [Linifanib] + CC(=O)Nc1cccc(-n2c(=O)n(C3CC3)c(=O)c3c(Nc4ccc(I)cc4F)n(C)c(=O)c(C)c32)c1 [Trametinib] (partner 0.02 µM)
In short: as §1

Linifanib + Palbociclib = compound: Cc1ccc(F)c(NC(=O)Nc2ccc(-c3cccc4[nH]nc(N)c34)cc2)c1 [Linifanib] + CC(=O)c1c(C)c2cnc(Nc3ccc(N4CCNCC4)cn3)nc2n(C2CCCC2)c1=O [Palbociclib] (partner 0.5 µM)
In short: as §1

Linifanib = compound: Cc1ccc(F)c(NC(=O)Nc2ccc(-c3cccc4[nH]nc(N)c34)cc2)c1 [Linifanib]
In short: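 Only plates meeting two conditions passed: control CV below 25% and at least one doubling. Lung cancer cell lines, kept overnight at 37 °C in 1536-well plates, were pinned with five library-drug doses (not always all listed) √10 apart on vehicle-anchored plates and grown 5 days without medium change. A one-step fix, permeabilisation and Hoechst stain preceded 4× imaging and MetaXpress nuclear counting. Viability equals treated-well nuclei divided by vehicle-well nuclei, as the median over plates.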

| Cell Line | relative viability (Linifanib + Tozasertib; first compound 0.03162 µM) | relative viability (Linifanib + Tozasertib; first compound 0.1 µM) | relative viability (Linifanib + Tozasertib; first compound 0.3162 µM) | relative viability (Linifanib + Foretinib; first compound 0.03162 µM) | relative viability (Linifanib + Foretinib; first compound 0.1 µM) | relative viability (Linifanib + Foretinib; first compound 0.3162 µM) | relative viability (Linifanib + Crizotinib; first compound 0.03162 µM) | relative viability (Linifanib + Crizotinib; first compound 0.1 µM) | relative viability (Linifanib + Crizotinib; first compound 0.3162 µM) | relative viability (Linifanib + Trametinib; first compound 0.03162 µM) | relative viability (Linifanib + Trametinib; first compound 0.1 µM) | relative viability (Linifanib + Trametinib; first compound 0.3162 µM) | relative viability (Linifanib + Palbociclib; first compound 0.03162 µM) | relative viability (Linifanib + Palbociclib; first compound 0.1 µM) | relative viability (Linifanib + Palbociclib; first compound 0.3162 µM) | relative viability (Linifanib; 0.03162 µM) | relative viability (Linifanib; 0.1 µM) | relative viability (Linifanib; 0.3162 µM) |
| --- | --- | --- | --- | --- | --- | --- | --- | --- | --- | --- | --- | --- | --- | --- | --- | --- | --- | --- |
| NCI-H1651 | 0.618 | 0.832 | 0.695 | 0.774 | 1.04 | 0.66 | 0.834 | 0.929 | 0.831 | 0.896 | 0.787 | 0.787 | 0.536 | 0.527 | 0.487 | 1.07 | 1.09 | 0.978 |
| LCLC-103H | 0.482 | 0.461 | 0.423 | 0.629 | 0.753 | 0.803 | 1.05 | 1.2 | 0.943 | 0.721 | 0.669 | 0.64 | 0.474 | 0.417 | 0.464 | 1.02 | 1.03 | 0.981 |
| LXF-289 | 0.185 | 0.173 | 0.172 | 1.09 | 0.975 | 0.936 | 0.887 | 0.855 | 0.742 | 0.749 | 0.695 | 0.624 | 0.668 | 0.612 | 0.564 | 1.04 | 1.04 | 0.84 |
| NCI-H2023 | 0.322 | 0.398 | 0.293 | 0.807 | 0.806 | 0.836 | 0.679 | 0.774 | 0.544 | 0.538 | 0.675 | 0.554 | 0.357 | 0.415 | 0.345 | 0.972 | 1.09 | 1.02 |
| NCI-H650 | 0.704 | 0.733 | 0.73 | 1 | 1.03 | 0.994 | 0.742 | 0.665 | 0.73 | 0.935 | 0.967 | 0.952 | 0.37 | 0.308 | 0.376 | 1.1 | 1.11 | 0.972 |
| NCI-H1395 | 0.691 | 0.725 | 0.729 | 0.967 | 1.05 | 0.998 |  |  |  | 0.943 | 0.882 | 0.933 | 0.656 | 0.673 | 0.691 | 0.956 | 0.983 | 0.868 |
| NCI-H322M | 0.5 | 0.515 | 0.407 | 0.939 | 1.06 | 1.02 | 0.954 | 0.982 | 0.828 | 0.549 | 0.345 | 0.506 | 0.488 | 0.487 | 0.441 | 1 | 0.939 | 0.956 |
| NCI-H23 | 0.366 | 0.39 | 0.329 | 1.28 | 0.964 | 1.15 | 0.555 | 0.463 | 0.506 | 0.399 | 0.487 | 0.396 | 0.486 | 0.57 | 0.487 | 0.98 | 1.06 | 0.811 |
